{"source": "ChEMBL document CHEMBL1148009", "about": "“Synthesis of amphiphilic galactopyranosyl diamines and amino alcohols as antitubercular agents” (2007)", "data": [{"test_system": "Mycobacterium tuberculosis", "experiment": "Antitubercular activity against Mycobacterium tuberculosis H37Rv", "format": "functional", "units": {"MIC": "µg/mL"}, "values": [{"compound": "CCCCCCCCCCCCCCCCCC(=O)NCCCNC[C@H]1O[C@@H]2OC(C)(C)O[C@@H]2[C@H]2OC(C)(C)O[C@H]21", "MIC": 12.5}, {"compound": "CCCCCCCCCCCCCCCCCC(=O)OCCN(C[C@H]1O[C@@H]2OC(C)(C)O[C@@H]2[C@H]2OC(C)(C)O[C@H]21)C(=O)CCCCCCCCCCCCCCCCC", "MIC": "> 50"}, {"compound": "CCCCCCCCCCCCCCCC(=O)NCCCN(C[C@H]1O[C@@H]2OC(C)(C)O[C@@H]2[C@H]2OC(C)(C)O[C@H]21)C(=O)CCCCCCCCCCCCCCC", "MIC": "> 50"}, {"compound": "CCCCCCCCCCCCCCCC(=O)NCCN(C[C@H]1O[C@@H]2OC(C)(C)O[C@@H]2[C@H]2OC(C)(C)O[C@H]21)C(=O)CCCCCCCCCCCCCCC", "MIC": "> 50"}, {"compound": "CCCCCCCCCCCCCCCCCC(=O)NCCCN(C[C@H]1OC(O)[C@H](O)[C@@H](O)[C@H]1O)C(=O)CCCCCCCCCCCCCCCCC", "note": "(stereo partly specified)", "MIC": "> 50"}, {"compound": "CC1(C)O[C@H]2[C@@H](O1)[C@@H](CNCCO)O[C@@H]1OC(C)(C)O[C@@H]12", "MIC": "> 50"}, {"compound": "CC1(C)O[C@H]2[C@@H](O1)[C@@H](CNCCCN)O[C@@H]1OC(C)(C)O[C@@H]12", "MIC": "> 50"}, {"compound": "CCCCCCCCCCCCCCCCCC(=O)NCCNC[C@H]1O[C@@H]2OC(C)(C)O[C@@H]2[C@H]2OC(C)(C)O[C@H]21", "MIC": "< 3.12"}, {"compound": "CCCCCCCCCCCCCCCCCC(=O)NCCN(C[C@H]1OC(O)[C@H](O)[C@@H](O)[C@H]1O)C(=O)CCCCCCCCCCCCCCCCC", "note": "(stereo partly specified)", "MIC": "> 50"}, {"compound": "CCCCCCCCCCCCCCCCCC(=O)N(CCO)C[C@H]1O[C@@H]2OC(C)(C)O[C@@H]2[C@H]2OC(C)(C)O[C@H]21", "MIC": 25}, {"compound": "CO[C@H]1/C=C/O[C@@]2(C)Oc3c(C)c(O)c4c(O)c(c(/C=N/N5CCN(C)CC5)c(O)c4c3C2=O)NC(=O)/C(C)=C\\C=C\\[C@H](C)[C@H](O)[C@@H](C)[C@@H](O)[C@@H](C)[C@H](OC(C)=O)[C@@H]1C", "note": "[RIFAMPIN]", "MIC": 1}]}]}
